For orientation: IC50 means the concentration at which inhibition is half-maximal.

The first experiment has as its target T1, hAR (human androgen receptor, baculovirus/Sf9 generated extracts) (Homo sapiens, UniProt P10275).
T1 construct: made in house; host or cells: baculovirus/Sf9 insect cells (crude extract)
T1 sequence (P10275 1-920): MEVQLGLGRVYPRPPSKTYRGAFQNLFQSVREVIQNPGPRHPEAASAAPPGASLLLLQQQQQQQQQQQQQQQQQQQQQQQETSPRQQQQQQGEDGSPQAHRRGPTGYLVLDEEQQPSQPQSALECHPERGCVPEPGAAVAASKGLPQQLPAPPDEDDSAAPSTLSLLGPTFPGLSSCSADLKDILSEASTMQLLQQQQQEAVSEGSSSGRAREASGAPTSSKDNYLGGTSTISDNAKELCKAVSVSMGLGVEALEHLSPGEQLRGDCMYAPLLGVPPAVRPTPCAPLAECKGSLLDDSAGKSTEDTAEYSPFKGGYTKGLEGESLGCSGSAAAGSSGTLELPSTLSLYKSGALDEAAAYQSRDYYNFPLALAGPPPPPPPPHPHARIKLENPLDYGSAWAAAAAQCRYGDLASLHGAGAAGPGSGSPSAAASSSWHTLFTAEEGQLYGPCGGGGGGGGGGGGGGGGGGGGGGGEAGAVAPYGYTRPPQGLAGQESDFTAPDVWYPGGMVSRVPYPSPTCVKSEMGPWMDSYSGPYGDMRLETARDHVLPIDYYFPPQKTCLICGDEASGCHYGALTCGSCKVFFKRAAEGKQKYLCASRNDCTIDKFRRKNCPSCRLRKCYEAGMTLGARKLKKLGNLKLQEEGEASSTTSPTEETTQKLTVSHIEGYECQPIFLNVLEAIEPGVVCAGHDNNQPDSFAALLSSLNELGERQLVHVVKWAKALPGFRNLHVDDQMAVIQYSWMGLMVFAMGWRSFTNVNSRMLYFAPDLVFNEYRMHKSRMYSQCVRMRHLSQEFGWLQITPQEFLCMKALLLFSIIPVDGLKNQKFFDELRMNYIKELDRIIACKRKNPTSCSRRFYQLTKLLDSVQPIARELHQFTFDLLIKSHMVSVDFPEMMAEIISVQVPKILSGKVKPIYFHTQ
Put plainly: AR Binding Assay (competitive binding with 3H-DHT tracer). As to conditions: AR Binding IC50, hAR extract, 1 nM 3H-DHT, one hour at 4° C.; mean of multiple tests. An outline of the steps: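 Compounds at decreasing concentrations were incubated with baculovirus/Sf9 hAR extract, hydroxylapatite and 1 nM ^3H-DHT for one hour at 4° C., then washed three times. The value is the compound concentration inhibiting half of maximum ^3H-DHT binding, reported as the mean of multiple tests.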
With `CC(Oc1ccc(C#N)c(C(F)(F)F)c1)c1ccccc1` (racemic) [Example 1, 4-(1-Phenyl-ethoxy)-2-trifluoromethyl-benzonitrile], the IC50 came to 10 nM.
Still for that read-out and setting: in the case of `CCCC(Oc1ccc(C#N)c(C(F)(F)F)c1)c1cccc(O)c1` (racemic) [Example 14, 4-[1-(3-Hydroxyphenyl)butoxy]-2-(trifluoromethyl)benzonitrile] it was 18 nM.
On the same count and under the same terms, the figure for `CCCC(Oc1ccc(C#N)c(C(F)(F)F)c1)c1cccc(O)c1` (single isomer, unassigned; (+)) [Example 15, (+)4-[1-(3-Hydroxyphenyl)butoxy]-2-(trifluoromethyl)benzonitrile] is 20 nM; for `CC(C)CC(Oc1ccc(C#N)c(C(F)(F)F)c1)c1cccc(O)c1` (single isomer, unassigned; (+)) [Example 21, (+)4-[1-(3-Hydroxyphenyl)-3-methylbutoxy]-2-(trifluoromethyl)benzonitrile] it is 66 nM; for `CC(Oc1ccc(C#N)c(C(F)(F)F)c1)c1cccc(O)c1` (single isomer, unassigned; (-)) [Example 9, (−)-4-[1-(3-Hydroxyphenyl)ethoxy]-2-(trifluoromethyl)benzonitrile] it is 56 nM.
Still for that read-out and setting: in the case of `C=CCC(Oc1ccc(C#N)c(C(F)(F)F)c1)c1cccc(O)c1` (single isomer, unassigned; (-)) [Example 19, (−)4-{[1-(3-Hydroxyphenyl)but-3-enyl]oxy}-2-(trifluoromethyl)benzonitrile] it was 185 nM; in that of `N#Cc1ccc(OCc2cccc(O)c2)cc1C(F)(F)F` [Example 6, 4-[(3-Hydroxybenzyl)oxy]-2-(trifluoromethyl)benzonitrile], 12 nM; in that of `CCC(Oc1ccc(C#N)c(C(F)(F)F)c1)c1ccccn1` (stereo not drawn) [Example 79, 4-(1-Pyridin^−2-yl-propoxy)-2-trifluoromethyl-benzonitrile], 148 nM.
Turning to `CC(C)CC(Oc1ccc(C#N)c(C(F)(F)F)c1)c1cccnc1` (stereo not drawn) [Example 88, 4-(3-Methyl-1-pyridin-3-yl-butoxy)-2-trifluoromethyl-benzonitrile], the IC50 is 218 nM.
On to `Cc1ccc(C(CC(C)C)Oc2ccc(C#N)c(C(F)(F)F)c2)cn1` (stereo not drawn) [Example 89, 4-[3-Methyl-1-(6-methyl-pyridin-3-yl)-butoxy]-2-trifluoromethyl-benzonitrile], for which the IC50 is 137 nM.

Still in this experiment, the particulars now being: hAR extract, 1 nM 3H-DHT, one hour at 4° C.; mean of multiple tests; read-out: AR Binding IC50.
With `CC(Oc1ccc(C#N)c(C(F)(F)F)c1)c1cncc(O)c1` (single isomer, unassigned; (+)) [Example 74, (+)4-[1-(5-Hydroxypyridin-3-yl)ethoxy]-2-(trifluoromethyl)benzonitrile], the 50% inhibitory concentration (IC50) worked out at 35 nM.
For the molecule `COc1cccc(C(C)Oc2ccc(C#N)c(C(F)(F)F)c2)n1` (stereo not drawn) [Example 80, 4-[1-(6-Methoxy-pyridin-2-yl)-ethoxy]-2-trifluoromethyl-benzonitrile], the half-maximal inhibitory concentration (IC50) came to 120 nM.
